# From patent US20110245242A1, “Heterocyclically Substituted Anilinopyrimides” (Bayer CropScience AG, priority 2008, published 2011)
# Test: log P by HPLC on reversed-phase columns (C 18), method [a], acidic range pH 2.3
# Type: physicochemical
# Conditions: pH 2.3
# Procedure: The log P values were measured in accordance with EEC Directive 79/831 Annex V.A8 by HPLC (High Performance Liquid Chromatography) on reversed-phase columns (C 18) using the methods below: [a] The determination was carried out in the acidic range at pH 2.3 using the mobile phases 0.1% aqueous phosphoric acid and acetronitrile linear gradient from 10% acetonitrile to 95% acetronitrile.
row,SMILES,log p
1,CCC1=C(C)CN(c2cccc(Nc3ncc(Br)c(NC4CC4)n3)c2)C1=O [Example 232],2.42[a]
2,CC(C)C1COC(=O)N1c1cccc(Nc2ncc(Cl)c(NC3CC3)n2)c1 (stereo not drawn) [Example 39],2.13[a]
3,C[C@@H]1COC(=O)N1c1cccc(Nc2ncc(Cl)c(NC3CC3)n2)c1 [Example 103],1.8[a]
4,O=C1CCCCCN1c1cccc(Nc2ncc(Br)c(NC3CC3)n2)c1 [Example 54],1.82[a]
5,COCC(C)Nc1nc(Nc2cccc(N3CCCC3=O)c2)ncc1Cl (stereo not drawn) [Example 2],1.53[a]
6,CCC(C)Nc1nc(Nc2ccc(N3CCCC3=O)cc2)ncc1Cl (stereo not drawn) [Example 7],1.65[a]

# Same assay, conditions: pH 2.3, log P (pH 2.3)
row,SMILES,chromatographic logP
1,"CC1(C)CC(=O)N(c2cccc(N)c2)C1=O [1-(3-Aminophenyl)-3,3-dimethylpyrrolidine-2,5-dione]",0.86
2,"Brc1ccc(Nc2ncc(Br)c(NCC3CC3)n2)cc1 [VII-9, 5-Bromo-N^2-(4-bromophenyl)-N^4-(cyclopropylmethyl)pyrimidine-2,4-diamine]",2.84
3,O=C1CCCN1c1cc([N+](=O)[O-])ccc1F [1-(2-Fluoro-5-nitrophenyl)pyrrolidin-2-one],1.47
4,"Nc1cccc(N2CCOC2=O)c1 [3-(3-Aminophenyl)-1,3-oxazolidin-2-one]",-0.18
5,"Clc1cnc(Nc2ccc(I)cc2)nc1NC1CCC1 [VII-12, 5-Chloro-N^4-cyclobutyl-N^2-(4-iodophenyl)pyrimidine-2,4-diamine]",3.49
6,"CC1CC(Nc2nc(Cl)ncc2Br)C1 (stereo not drawn) [Example V-6, 5-Bromo-2-chloro-N-(3-methylcyclobutyl)pyrimidin-4-amine]",3.47

# The remaining lines, values ahead:
row,chromatographic logP,SMILES
1,1.96,"FC(F)CNc1nc(Cl)ncc1Cl [Example V-2, 2,5-Dichloro-N-(2,2-difluoroethyl)pyrimidin-4-amine]"
2,2.84,"O=C1CCCN1c1cc(Nc2ncc(C(F)(F)F)c(Cl)n2)ccc1F [VI-2, 1-(5-{[4-Chloro-5-(trifluoromethyl)pyrimidin-2-yl]amino}-2-fluorophenyl)pyrrolidin-2-one]"
3,3.02,"CC1CC1Nc1nc(Cl)ncc1C(F)(F)F (stereo not drawn) [Example V-42, 2-Chloro-N-(2-methylcyclopropyl)-5-(trifluoromethyl)pyrimidin-4-amine]"
4,2.53,"CC1CC1Nc1nc(Cl)ncc1Cl (stereo not drawn) [Example V-40, 2,5-Dichloro-N-(2-methylcyclopropyl)pyrimidin-4-amine]"
5,2.78,"Clc1ncc(Cl)c(N2CCCC2)n1 [Example V-34, 2,5-Dichloro-4-(pyrrolidin-1-yl)pyrimidine]"
6,2.28,"O=C1CCCN1c1cccc(Nc2ncc(C(F)F)c(F)n2)c1 [VI-3, 1-(3-{[5-(Difluoromethyl)-4-fluoropyrimidin-2-yl]amino}phenyl)pyrrolidin-2-one]"
7,1.18,"CC(C)[C@@H]1COC(=O)N1c1cccc(N)c1 [(4R)-3-(3-Aminophenyl)-4-isopropyl-1,3-oxazolidin-2-one]"
8,0.33,"CC1CN(c2cccc(N)c2)C(=O)O1 (stereo not drawn) [3-(3-Aminophenyl)-5-methyl-1,3-oxazolidin-2-one]"

# Test: log P by LC-MS, method [b], acid range pH 2.7
# Type: physicochemical
# Conditions: pH 2.7
# Procedure: The log P values were measured in accordance with EEC Directive 79/831 Annex V.A8 by HPLC (High Performance Liquid Chromatography) on reversed-phase columns (C 18) using the methods below:
# [b] The LC-MS determination in the acid range was carried out at pH 2.7 using the mobile phases 0.1% aqueous formic acid and acetonitrile (contains 0.1% formic acid)
# linear gradient from 10% acetonitrile to 95% acetonitrile.
row,SMILES,log p
1,COCC(C)Nc1nc(Nc2cccc(N3C(=O)OC[C@@H]3C(C)C)c2)ncc1Cl (stereo partly drawn) [Example 117],2.1[b]
2,CC1(C)CC1Nc1nc(Nc2cccc(N3CCCC3=O)c2)ncc1C(F)(F)F (stereo not drawn) [Example 321],3.04[b]
3,CC1CCC(=O)N1c1cccc(Nc2ncc(Cl)c(NC3CCC3)n2)c1 (stereo not drawn) [Example 37],1.83[b]
4,CCCNc1nc(Nc2cccc(N3CCCC3=O)c2)ncc1Cl [Example 307],1.49[b]
5,CC(C)Nc1nc(Nc2cccc(N3C(=O)CCC3C)c2)ncc1Cl (stereo not drawn) [Example 144],1.66[b]
6,C[C@@H]1C[C@H](C)N(c2cccc(Nc3ncc(Br)c(NCC(F)F)n3)c2)C1=O [Example 189],3.24[b]
7,CCC1COC(=O)N1c1cccc(Nc2ncc(Br)c(NC3CCC3)n2)c1 (stereo not drawn) [Example 34],2.24[b]
8,C[C@@H]1COC(=O)N1c1cccc(Nc2ncc(Br)c(NC3CC3)n2)c1 [Example 104],2.03[b]
9,CC1CC(=O)N(c2cccc(Nc3ncc(Br)c(NCC(F)F)n3)c2)C1=O (stereo not drawn) [Example 168],1.78[b]
10,CC1(C)CC(=O)N(c2cccc(Nc3ncc(Cl)c(NC4CCC4)n3)c2)C1=O [Example 29],2.07[b]
11,COCC(C)Nc1nc(Nc2cccc(N3C(=O)OC[C@H]3C)c2)ncc1Br (stereo partly drawn) [Example 183],1.71[b]
12,O=C1OCC(c2ccccc2)N1c1cccc(Nc2ncc(Cl)c(NC3CC3)n2)c1 (stereo not drawn) [Example 88],2.27[b]
13,CC(C)Nc1nc(Nc2cccc(N3C(=O)CCC3C)c2)ncc1Br (stereo not drawn) [Example 152],1.73[b]
14,CC(C)Nc1nc(Nc2cccc(N3C(=O)C(C)CC3C)c2)ncc1Br (stereo not drawn) [Example 149],1.98[b]
15,CC(C)Nc1nc(Nc2cccc(N3C(=O)CC(C)C3=O)c2)ncc1Br (stereo not drawn) [Example 153],1.68[b]
16,CC(C)[C@H]1COC(=O)N1c1cccc(Nc2ncc(Cl)c(NCC(F)F)n2)c1 [Example 112],2.39[b]
17,COCC(C)Nc1nc(Nc2cccc(N3C(=O)CC(C)C3=O)c2)ncc1Br (stereo not drawn) [Example 70],1.68[b]
18,CC1CCC(=O)N1c1cccc(Nc2ncc(Cl)c(NCC(F)(F)F)n2)c1 (stereo not drawn) [Example 174],2.16[b]
19,CC(C)[C@H]1COC(=O)N1c1cccc(Nc2ncc(Cl)c(NC3CCC3)n2)c1 [Example 100],2.38[b]
20,CCC1COC(=O)N1c1cccc(Nc2ncc(Cl)c(NC3CCC3)n2)c1 (stereo not drawn) [Example 35],2.09[b]
21,CC1CC(C)N(c2cccc(Nc3ncc(Br)c(NC4CCC4)n3)c2)C1=O (stereo not drawn) [Example 85],2.3[b]
22,CC1COC(=O)N1c1cccc(Nc2ncc(Cl)c(NCC(F)F)n2)c1 (stereo not drawn) [Example 155],1.81[b]
23,CC1CCN(c2cccc(Nc3ncc(Cl)c(NC4CCC4)n3)c2)C1=O (stereo not drawn) [Example 113],2.01[b]
24,CC(C)Nc1nc(Nc2ccc(N3CCOC3=O)cc2)ncc1Cl [Example 64],1.49[b]
25,CC1CC(=O)N(c2cccc(Nc3ncc(Cl)c(NCC4CC4)n3)c2)C1=O (stereo not drawn) [Example 71],1.68[b]
26,CC1CC(=O)N(c2cccc(Nc3ncc(Br)c(NC4CCC4)n3)c2)C1 (stereo not drawn) [Example 98],2.16[b]
27,CC1CC(=O)N(c2cccc(Nc3ncc(Cl)c(NC4CC4)n3)c2)C1 (stereo not drawn) [Example 96],1.75[b]
28,CC1CC(C)N(c2cccc(Nc3ncc(Cl)c(NCC(F)F)n3)c2)C1=O (stereo not drawn) [Example 157],2.11[b]
29,O=C1OCCN1c1ccc(Nc2ncc(Cl)c(NCC(F)(F)F)n2)cc1 [Example 23],1.83[b]
30,CC(C)Nc1nc(Nc2cccc(N3CCOCC3=O)c2)ncc1Br [Example 151],1.47[b]

# Continued, values first:
row,log p,SMILES
1,1.77[b],CC1CCC(=O)N1c1cccc(Nc2ncc(Br)c(NCC3CC3)n2)c1 (stereo not drawn) [Example 133]
2,1.88[b],CC1COC(=O)N1c1cccc(Nc2ncc(Br)c(NCC(F)F)n2)c1 (stereo not drawn) [Example 163]
3,2.07[b],CC1(C)CN(c2cccc(Nc3ncc(Cl)c(NC4CC4)n3)c2)C1=O [Example 53]
4,1.61[b],CC(C)Nc1nc(Nc2ccc(N3C(=O)OCC3C)cc2)ncc1Cl (stereo not drawn) [Example 142]
5,1.75[b],O=C1CCCCN1c1cccc(Nc2ncc(Br)c(NCC(F)F)n2)c1 [Example 135]
6,2.1[b],CC(C)Nc1nc(Nc2cccc(N3C(=O)OC[C@@H]3C(C)C)c2)ncc1Cl [Example 110]
7,1.63[b],CNc1nc(Nc2cccc(N3CCCC3=O)c2)ncc1C(F)(F)F [Example 323]
8,1.91[b],CC1CCC(=O)N1c1cccc(Nc2ncc(Br)c(NCC(F)F)n2)c1 (stereo not drawn) [Example 167]
9,2.17[b],O=c1ccccn1-c1cccc(Nc2ncc(Cl)c(NC3CCC3)n2)c1 [Example 16]
10,2.01[b],O=C1OCCN1c1cccc(Nc2ncc(Cl)c(NCC(F)(F)F)n2)c1 [Example 175]
11,1.61[b],COCC(C)Nc1nc(Nc2cccc(N3CCOC3=O)c2)ncc1Br (stereo not drawn) [Example 69]
12,1.71[b],O=C1OCCN1c1cccc(Nc2ncc(Br)c(NCC(F)F)n2)c1 [Example 162]
13,2.28[b],CC(C)C1COC(=O)N1c1cccc(Nc2ncc(Br)c(NCC3CC3)n2)c1 (stereo not drawn) [Example 128]
14,1.8[b],O=C1OCCN1c1cccc(Nc2ncc(Br)c(NC3CCC3)n2)c1 [Example 72]
15,1.46[b],O=C1COCCN1c1cccc(Nc2ncc(Cl)c(NCC(F)F)n2)c1 [Example 159]
16,1.46[b],COCC(C)Nc1nc(Nc2ccc(N3CCOC3=O)cc2)ncc1Cl (stereo not drawn) [Example 12]
17,2.17[b],CC(C)[C@H]1COC(=O)N1c1cccc(Nc2ncc(Cl)c(NCC3CC3)n2)c1 [Example 109]
18,1.86[b],CC1CC(Nc2nc(Nc3cccc(N4C(=O)CCC4=O)c3)ncc2Br)C1 (stereo not drawn) [Example 288]
19,1.78[b],CC1CC(=O)N(c2cccc(Nc3ncc(Br)c(NCC4CC4)n3)c2)C1=O (stereo not drawn) [Example 74]
20,1.6[b],Cc1ccc(Nc2ncc(Cl)c(NC3CCC3)n2)cc1N1CCOC1=O [Example 105]
21,1.81[b],CC1CCC(=O)N1c1cccc(Nc2ncc(Cl)c(NCC(F)F)n2)c1 (stereo not drawn) [Example 160]
22,2.66[b],CC1CC(Nc2nc(Nc3cccc(N4C(=O)C(C)CC4C)c3)ncc2Br)C1 (stereo not drawn) [Example 291]
23,1.84[b],O=C1CCCN1c1cccc(Nc2ncc(C(F)(F)F)c(NC3COC3)n2)c1 [Example 322]
24,1.68[b],CC(C)Nc1nc(Nc2ccc(N3C(=O)OCC3C)cc2)ncc1Br (stereo not drawn) [Example 150]
25,1.99[b],CCC1CC1Nc1nc(Nc2cccc(N3CCCC3=O)c2)ncc1Cl (stereo not drawn) [Example 242]
